Assay results from patent EP3064205A1, “Therapeutic use of isomeric forms of 2-(4-chlorophenyl)quinolin-4-yl)(piperidin-2-yl)methanol” (Glionova AB, priority 2015, dated 2016).
Read-outs that look alike come from different tables or passages of the source.

Key:
Test in all cases: 3D clonogenic assay (PDX)
Format in all cases: cell-based, human
LXFL 1674 = details: LXFL 1674, Lung Large Cell; for IC50: Homo sapiens
Outline: (§1)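 Tumor xenografts are dissociated with a collagenase/DNase/hyaluronidase/dispase cocktail, and the cells are frozen, then thawed and embedded in 0.4% agar over a 0.75% agar base. Compound is added at day 1 and left on continuously for 8–13 days. IC50 is taken as the curve inflection point or as the concentration at T/C = 50%.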

LXFA 1647 = details: LXFA 1647, Lung Adeno; for IC50: Homo sapiens
Outline: as §1

LXFA 983 = details: LXFA 983, Lung Adeno; for IC50: Homo sapiens
Outline: as §1

SXFS 1937 = details: SXFS 1937, Sarcoma Soft Tissue; for IC50: Homo sapiens
Outline: as §1

PAXF 546 = details: PAXF 546, Pancreas; for IC50: Homo sapiens, PAXF546
Outline: as §1

PAXF 2005 = details: PAXF 2005, Pancreas; for IC50: Homo sapiens
Outline: as §1

HNXF 536 = details: HNXF 536, Head and Neck; for IC50: Homo sapiens
Outline: as §1

OVXF 1353 = details: OVXF 1353, Ovarian; for IC50: Homo sapiens
Outline: as §1

PAXF 2094 = details: PAXF 2094, Pancreas; for IC50: Homo sapiens
Outline: as §1

OVXF 899 = details: OVXF 899, Ovarian; for IC50: Homo sapiens
Outline: as §1

LXFA 526 = details: LXFA 526, Lung Adeno; for IC50: Homo sapiens
Outline: as §1

- IC50 (LXFL 1674; read-out: abs. IC50): 6.68 µM
- IC50 (LXFL 1674; read-out: rel. IC50): 6.59 µM
- IC50 (LXFA 1647; read-out: abs. IC50): 12.1 µM
- IC50 (LXFA 1647; read-out: rel. IC50): 11.9 µM
- IC50 (LXFA 983; read-out: abs. IC50): 4.81 µM
- IC50 (LXFA 983; read-out: rel. IC50): 4.6 µM
- IC50 (SXFS 1937; read-out: abs. IC50): 10.1 µM
- IC50 (SXFS 1937; read-out: rel. IC50): 9.9 µM
- IC50 (PAXF 546; read-out: abs. IC50): 9.22 µM
- IC50 (PAXF 546; read-out: rel. IC50): 9.07 µM
- IC50 (PAXF 2005; read-out: abs. IC50): 9.16 µM
- IC50 (PAXF 2005; read-out: rel. IC50): 9.06 µM
- IC50 (HNXF 536; read-out: abs. IC50): 8.21 µM
- IC50 (HNXF 536; read-out: rel. IC50): 7.47 µM
- IC50 (OVXF 1353; read-out: abs. IC50): 4.91 µM
- IC50 (OVXF 1353; read-out: rel. IC50): 4.72 µM
- IC50 (PAXF 2094; read-out: abs. IC50): 8.88 µM
- IC50 (PAXF 2094; read-out: rel. IC50): 8.64 µM
- IC50 (OVXF 899; read-out: abs. IC50): 6.38 µM
- IC50 (OVXF 899; read-out: rel. IC50): 6.16 µM
- IC50 (LXFA 526; read-out: abs. IC50): 3.23 µM
- IC50 (LXFA 526; read-out: rel. IC50): 2.91 µM
SMILES: O[C@H](c1cc(-c2ccc(Cl)cc2)nc2ccccc12)[C@@H]1CCCCN1 [S1, (R)-(2-(4-chlorophenyl)quinolin-4-yl)((S)-piperidin-2-yl)methanol]
- b (bottom plateau of concentration-effect curve) (LXFL 1674): 9
- t (top plateau of concentration-effect curve) (LXFL 1674): 93
- b (bottom plateau of concentration-effect curve) (LXFA 1647): 13
- t (top plateau of concentration-effect curve) (LXFA 1647): 98
- b (bottom plateau of concentration-effect curve) (LXFA 983): 30
- t (top plateau of concentration-effect curve) (LXFA 983): 96
- b (bottom plateau of concentration-effect curve) (SXFS 1937): 18
- t (top plateau of concentration-effect curve) (SXFS 1937): 120
- b (bottom plateau of concentration-effect curve) (PAXF 546): 25
- t (top plateau of concentration-effect curve) (PAXF 546): 96
- b (bottom plateau of concentration-effect curve) (PAXF 2005): 11
- t (top plateau of concentration-effect curve) (PAXF 2005): 106
- b (bottom plateau of concentration-effect curve) (HNXF 536): 14
- t (top plateau of concentration-effect curve) (HNXF 536): 99
- b (bottom plateau of concentration-effect curve) (OVXF 1353): 23
- t (top plateau of concentration-effect curve) (OVXF 1353): 101
- b (bottom plateau of concentration-effect curve) (PAXF 2094): 30
- t (top plateau of concentration-effect curve) (PAXF 2094): 105
- b (bottom plateau of concentration-effect curve) (OVXF 899): 18
- t (top plateau of concentration-effect curve) (OVXF 899): 100
- b (bottom plateau of concentration-effect curve) (LXFA 526): 10
- t (top plateau of concentration-effect curve) (LXFA 526): 96
